Tested on: Recombinant human cathepsin A
Experiment: Cathepsin A inhibitory activity (Bodipy FL-bradykinin substrate, microfluidic capillary electrophoresis)
Format: biochemical
Details: read-out: CATH A IC50
Experimental: Pharmacological Tests a) Cathepsin a Inhibitory Activity
Recombinant human cathepsin A (residues 29-480, with a C-terminal 10-His tag; R&D Systems, #1049-SE) was proteolytically activated with recombinant human cathepsin L (R&D Systems, #952-CY). Briefly, cathepsin A was incubated at 10 μg/ml with cathepsin L at 1 μg/ml in activation buffer (25 mM 2-(morpholin-4-yl)-ethanesulfonic acid (MES), pH 6.0, containing 5 mM dithiothreitol (DTT)) for 15 min at 37° C.
The activated cathepsin A was diluted in assay buffer (25 mM MES, pH 5.5, containing 5 mM DTT) and mixed with the test compound (dissolved in assay buffer containing (v/v) 3% DMSO) or, in the control experiments, with the vehicle in a multiple assay plate. After incubation for 15 min at room temperature, as substrate then bradykinin carrying an N-terminal ®Bodipy FL (4,4-difluoro-5,7-dimethyl-4-bora-3a,4a-diaza-s-indacene-3-propionyl) label (JPT Peptide Technologies GmbH; dissolved in assay buffer) was added to the mixture. The final concentration of cathepsin A was 833 ng/ml and the final concentration of labeled bradykinin 2 μM. After incubation for 15 min at room temperature the reaction was stopped by the addition of stop buffer (130 mM 2-(4-(2-hydroxy-ethyl)-piperazin-1-yl)-ethanesulfonic acid, pH 7.4, containing (v/v) 0.013% ®Triton X-100, 0.13% Coating Reagent 3 (Caliper Life Sciences), 6.5% DMSO and 20 μM ebelactone B (Sigma, # E0886)).
Uncleaved substrate and product were then separated by a microfluidic capillary electrophoresis on a LabChip® 3000 Drug Discovery System (12-Sipper-Chip; Caliper Life Sciences) and quantified by determination of the respective peak areas. Substrate turnover was calculated by dividing product peak area by the sum of substrate and product peak areas, and the enzyme activity and the inhibitory effect of the test compound thus quantified.

| Compound | IC50 |
| --- | --- |
| COc1ccc(CO)cc1-c1cccc(C(CC(=O)O)c2ncc(C)s2)c1 (stereo not drawn) [compound 57] | 131 nM |
| COc1cccc(F)c1-c1cccc(C(CC(=O)O)c2nnc(C)o2)c1 (stereo not drawn) [compound 145] | 116 nM |
| COc1cc(F)ccc1-c1cc(Cl)cc(C(CC(=O)O)c2ncc(C)s2)c1 (stereo not drawn) [compound 90] | 119 nM |
| COc1cccc(F)c1-c1cncc(C(CC(=O)O)c2nnc(C)o2)c1 (stereo not drawn) [compound 195] | 3900 nM |
| COc1ccc(C(C)C)cc1-c1cccc([C@H](CC(=O)O)c2nnc(C)o2)c1 [compound 108] | 6260 nM |
| COc1ccc(C(C)(C)C)cc1-c1cccc([C@@H](CC(=O)O)c2nccs2)c1 [compound 6] | 3380 nM |
| COc1cccc(C(=O)N2CCCC2)c1-c1cc(F)cc(C(CC(=O)O)c2nnc(C)o2)c1 (stereo not drawn) [compound 174] | 5260 nM |
| COc1c(F)cc(F)cc1-c1cccc(C(CC(=O)O)c2nccs2)c1 (stereo not drawn) [compound 36] | 467 nM |
| COc1cccc(Cl)c1-c1cccc(C(CC(=O)O)c2ncc(C)s2)c1 (stereo not drawn) [compound 58] | 155 nM |
| COc1c(-c2cccc(C(CC(=O)O)c3nccs3)c2)cccc1C(F)(F)F (stereo not drawn) [compound 49] | 7000 nM |
| COc1c(C)cccc1-c1cccc(C(CC(=O)O)c2nnc(C)o2)c1 (stereo not drawn) [compound 151] | 571 nM |
| COc1c(Cl)cccc1-c1cc(Cl)cc(C(CC(=O)O)c2ncc(C)s2)c1 (stereo not drawn) [compound 92] | 134 nM |
| CCOc1ccc(C)cc1-c1cccc(C(CC(=O)O)c2nccs2)c1 (stereo not drawn) [compound 25] | 147 nM |
| COc1ccc(-c2cc(F)cc(C(CC(=O)O)c3ncc(C)s3)c2)c(OC)c1 (stereo not drawn) [compound 120] | 199 nM |
| COc1ccc(C(C)(C)C)cc1-c1cc(F)cc(C(CC(=O)O)c2ncc(C)s2)c1 (stereo not drawn) [compound 113] | 124 nM |
| COc1cccc(CO)c1-c1cccc(C(CC(=O)O)c2nnc(C)o2)c1 (stereo not drawn) [compound 150] | 325 nM |
| COc1cc(Cl)ccc1-c1cccc(C(CC(=O)O)c2nccs2)c1 (stereo not drawn) [compound 38] | 590 nM |
| COc1ccc(OC)c(-c2cc(F)cc(C(CC(=O)O)c3ncc(C)s3)c2)c1 (stereo not drawn) [compound 112] | 122 nM |
| COc1ccc(C)cc1-c1ccc(OC)c(C(CC(=O)O)c2ncc(C)s2)c1 (stereo not drawn) [compound 67] | 9690 nM |
| COc1ccc(C(C)C)cc1-c1cncc(C(CC(=O)O)c2nnc(C)o2)c1 (stereo not drawn) [compound 183] | 1030 nM |
| COc1cccc(C#N)c1-c1cccc(C(CC(=O)O)c2nccs2)c1 (stereo not drawn) [compound 47] | 1750 nM |
| COc1ccc(OC(F)(F)F)cc1-c1cc(Cl)cc(C(CC(=O)O)c2ncc(C)s2)c1 (stereo not drawn) [compound 94] | 165 nM |
| COc1c(F)cc(F)cc1-c1cc(F)cc(C(CC(=O)O)c2ncco2)c1 (stereo not drawn) [compound 129] | 457 nM |

| Compound | IC50 |
| --- | --- |
| COc1cc(F)ccc1-c1cc(F)cc(C(CC(=O)O)c2ncc(C)s2)c1 (stereo not drawn) [compound 123] | 246 nM |
| COc1ccc(S(C)(=O)=O)cc1-c1cc(C(CC(=O)O)c2nnc(C)o2)cc(C(F)(F)F)c1 (stereo not drawn) [compound 215] | 130 nM |
| COc1ccc(OC(F)(F)F)cc1-c1cc(F)cc(C(CC(=O)O)c2nnc(C)o2)c1 (stereo not drawn) [compound 168] | 165 nM |
| COc1ccc(Cl)cc1-c1cccc(C(CC(=O)O)c2nnc(C)o2)c1 (stereo not drawn) [compound 50] | 108 nM |
| COc1cccc(C(=O)N2CCCC2)c1-c1cc(Cl)cc(C(CC(=O)O)c2nnc(C)o2)c1 (stereo not drawn) [compound 171] | 4210 nM |
| COc1cccc(CO)c1-c1cc(F)cc(C(CC(=O)O)c2nnc(C)o2)c1 (stereo not drawn) [compound 167] | 400 nM |
| COc1ccc(S(C)(=O)=O)cc1-c1cc(F)cc(C(CC(=O)O)c2nnc(C)o2)c1 (stereo not drawn) [compound 178] | 588 nM |
| COc1ccc(Cl)cc1-c1ccc(OC)c(C(CC(=O)O)c2ncc(C)s2)c1 (stereo not drawn) [compound 65] | 3050 nM |
| COc1ccc(OC(F)(F)F)cc1-c1cccc(C(CC(=O)O)c2ncc(C)s2)c1 (stereo not drawn) [compound 60] | 269 nM |
| COc1ccc(Cl)cc1-c1cccc(C(CC(=O)O)c2nc(C)c(C)s2)c1 (stereo not drawn) [compound 19] | 657 nM |
| COc1ccc(C(C)(C)C)cc1-c1cncc(C(CC(=O)O)c2nnc(C)o2)c1 (stereo not drawn) [compound 182] | 452 nM |
| COc1ccc(OC(F)(F)F)cc1-c1cccc(C(CC(=O)O)c2nccs2)c1 (stereo not drawn) [compound 34] | 389 nM |
| Cc1nnc(C(CC(=O)O)c2cc(F)cc(-c3ccccc3OC(F)(F)F)c2)o1 (stereo not drawn) [compound 165] | 231 nM |
| Cc1cnc(C(CC(=O)O)c2cc(Cl)cc(-c3ccccc3OC(F)(F)F)c2)s1 (stereo not drawn) [compound 95] | 221 nM |
| COc1c(F)cccc1-c1cccc(C(CC(=O)O)c2nccs2)c1 (stereo not drawn) [compound 42] | 1040 nM |
| COc1c(C)cccc1-c1cc(Cl)cc(C(CC(=O)O)c2ncc(C)s2)c1 (stereo not drawn) [compound 93] | 164 nM |
| COc1ccc(-c2cccc(C(CC(=O)O)c3nnc(C)o3)c2)c(OC)c1 (stereo not drawn) [compound 147] | 137 nM |
| COc1ccc(C(C)C)cc1-c1cccc(C(CC(=O)O)c2nccs2)c1 (stereo not drawn) [compound 2] | 132 nM |
| COc1cccc(F)c1-c1cccc(C(CC(=O)O)c2nccs2)c1 (stereo not drawn) [compound 26] | 148 nM |
| COc1cc(C(F)(F)F)ccc1-c1cccc(C(CC(=O)O)c2nccs2)c1 (stereo not drawn) [compound 48] | 2280 nM |
| COc1ccc(OC(F)(F)F)cc1-c1cncc(C(CC(=O)O)c2nnc(C)o2)c1 (stereo not drawn) [compound 197] | 4760 nM |
| COc1ccc(CO)cc1-c1cccc(C(CC(=O)O)c2nccs2)c1 (stereo not drawn) [compound 33] | 333 nM |
| COc1ccc(C(F)(F)F)cc1-c1cccc(C(CC(=O)O)c2nccs2)c1 (stereo not drawn) [compound 22] | 134 nM |

The next compounds have a lower IC50 than those just listed; values first:

| IC50 | Compound |
| --- | --- |
| 33 nM | COc1ccc(-c2cc(Cl)cc(C(CC(=O)O)c3nnc(C)o3)c2)c(OC)c1 (stereo not drawn) [compound 172] |
| 35 nM | COc1ccc(C(C)(C)C)cc1-c1cccc([C@H](CC(=O)O)c2nccs2)c1 [compound 5] |
| 41 nM | COc1ccc(OC)c(-c2cccc(C(CC(=O)O)c3nnc(C)o3)c2)c1 (stereo not drawn) [compound 138] |
| 24 nM | COc1cc(C)cc(OC)c1-c1cccc(C(CC(=O)O)c2nnc(C)o2)c1 (stereo not drawn) [compound 137] |
| 56 nM | COc1cccc(F)c1-c1cc(F)cc(C(CC(=O)O)c2ncc(C)s2)c1 (stereo not drawn) [compound 101] |
| 6 nM | COc1cc(C)cc(OC)c1-c1cc(C(CC(=O)O)c2nnc(C)o2)cc(C(F)(F)F)c1 (stereo not drawn) [compound 206] |
| 51 nM | COc1ccc(C(C)(C)C)cc1-c1cccc([C@@H](CC(=O)O)c2ncco2)c1 [compound 11] |
| 104 nM | COc1cccc(C#N)c1-c1cc(Cl)cc(C(CC(=O)O)c2nnc(C)o2)c1 (stereo not drawn) [compound 156] |
| 65 nM | CCOc1ccc(C)cc1-c1cc(Cl)cc(C(CC(=O)O)c2ncc(C)s2)c1 (stereo not drawn) [compound 86] |
| 22 nM | COc1ccc(CO)cc1-c1cc(C(CC(=O)O)c2nnc(C)o2)cc(C(F)(F)F)c1 (stereo not drawn) [compound 221] |
| 93 nM | COc1ccc(C(C)C)cc1-c1cc(Cl)cc(C(CC(=O)O)c2ncc(C)s2)c1 (stereo not drawn) [compound 87] |
| 5 nM | COc1cccc(OC)c1-c1cc(Cl)cc(C(CC(=O)O)c2nnc(C)o2)c1 (stereo not drawn) [compound 154] |
| 53 nM | COc1ccc(-c2cc(Cl)cc(C(CC(=O)O)c3ncc(C)s3)c2)c(OC)c1 (stereo not drawn) [compound 83] |
| 94 nM | COc1ccc(OC)c(-c2cccc(C(CC(=O)O)c3ncc(C)s3)c2)c1 (stereo not drawn) [compound 54] |
| 17 nM | COc1cccc(OC)c1-c1cccc(C(CC(=O)O)c2nnc(C)o2)c1 (stereo not drawn) [compound 135] |
| 52 nM | COc1ccc(C)cc1-c1cc(F)cc(C(CC(=O)O)c2ncc(C)s2)c1 (stereo not drawn) [compound 100] |
| 38 nM | COc1ccc(F)cc1-c1cc(Cl)cc(C(CC(=O)O)c2ncc(C)s2)c1 (stereo not drawn) [compound 79] |
| 17 nM | COc1ccc(C)cc1-c1cc(Cl)cc(C(CC(=O)O)c2nnc(C)o2)c1 (stereo not drawn) [compound 169] |
| 47 nM | CCOc1ccccc1-c1cc(Cl)cc(C(CC(=O)O)c2ncc(C)s2)c1 (stereo not drawn) [compound 80] |
| 5 nM | COc1cccc(OC)c1-c1cc(F)cc(C(CC(=O)O)c2ncc(C)s2)c1 (stereo not drawn) [compound 7] |
| 28 nM | COc1cc(C)cc(OC)c1-c1cc(F)cc(C(CC(=O)O)c2ncc(C)s2)c1 (stereo not drawn) [compound 99] |
| 29 nM | COc1ccc(CO)cc1-c1cc(Cl)cc(C(CC(=O)O)c2ncc(C)s2)c1 (stereo not drawn) [compound 77] |
| 80 nM | COc1cccc(Cl)c1-c1cccc(C(CC(=O)O)c2nnc(C)o2)c1 (stereo not drawn) [compound 142] |
| 73 nM | COc1cccc(CO)c1-c1cc(C(CC(=O)O)c2nnc(C)o2)cc(C(F)(F)F)c1 (stereo not drawn) [compound 219] |
| 56 nM | COc1ccc(OC)c(-c2cccc(C(CC(=O)O)c3ncc(C)s3)c2)c1OC (stereo not drawn) [compound 52] |
| 65 nM | Cc1nnc(C(CC(=O)O)c2cc(-c3ccccc3OC(F)(F)F)cc(C(F)(F)F)c2)o1 (stereo not drawn) [compound 208] |
| 28 nM | COc1ccc(OC)c(-c2cc(Cl)cc(C(CC(=O)O)c3ncc(C)s3)c2)c1 (stereo not drawn) [compound 76] |
| 104 nM | CCOc1ccccc1-c1cc(F)cc(C(CC(=O)O)c2nnc(C)o2)c1 (stereo not drawn) [compound 175] |
| 85 nM | COc1ccc(OC(F)(F)F)cc1-c1cccc(C(CC(=O)O)c2nnc(C)o2)c1 (stereo not drawn) [compound 143] |

Reference: patent publication US9150526B2, “Biaryl-propionic acid derivatives and their use as pharmaceuticals” (SANOFI, priority 2013, dated 2015)
